Data: patent publication EP1000039B1 (Wyeth Holdings Corporation, priority 1997, dated 1999)
pIC50: −log10 of the molar value. Converted amounts (≈) assume the structure as drawn. Like-named read-outs stand apart in the source and are kept apart here.

Legend:
[1] = system: SKBR3; experiment: Inhibition of Cancer Cell Growth (Sulforhodamine B); assay type: cell-based, Human; conditions: for IC50: Homo sapiens, SK-BR-3, 48 hours exposure, read-out: Inhibition of Cancer Cell Growth as Measured by Cell Number (IC50) SKBR3
Method: (§1) After 48 hours exposure to test compounds, cells were fixed with trichloroacetic acid, and stained with Sulforhodamine B. After washing with trichloroacetic acid, bound dye was solubilized in 10 mM Tris base and optical density was determined using plate reader. Under conditions of the assay the optical density is proportional to the number of cells in the well. […] The test procedure is described in details by Philip Skehan et. al. J.Natl. Canc. […]

[2] = system: A431; experiment: as above; assay type: cell-based, Human; conditions: for IC50: Homo sapiens, A-431, 48 hours exposure, read-out: Inhibition of Cancer Cell Growth as Measured by Cell Number (IC50) A431
Method: as §1

[3] = system: MCF7; experiment: as above; assay type: cell-based, Human; conditions: 48 hours exposure; for IC50: Homo sapiens, read-out: Inhibition of Cancer Cell Growth as Measured by Cell Number (IC50) MCF7
Method: as §1

[4] = system: A2780DDP; experiment: as above; assay type: cell-based, Human; conditions: 48 hours exposure; for IC50: Homo sapiens, read-out: Inhibition of Cancer Cell Growth as Measured by Cell Number (IC50) A2780DDP
Method: as §1

[5] = system: SW620; experiment: as above; assay type: cell-based, Human; conditions: for IC50: Homo sapiens, SW-620, 48 hours exposure, read-out: Inhibition of Cancer Cell Growth as Measured by Cell Number (IC50) SW620
Method: as §1

[6] = system: LOX; experiment: as above; assay type: cell-based, Human; conditions: 48 hours exposure; for IC50: Homo sapiens, read-out: Inhibition of Cancer Cell Growth as Measured by Cell Number (IC50) LOX
Method: as §1

[7] = system: MB435; experiment: as above; assay type: cell-based, Human; conditions: 48 hours exposure; for IC50: Homo sapiens, read-out: Inhibition of Cancer Cell Growth as Measured by Cell Number (IC50) MB435
Method: as §1

[8] = system: A2780S; experiment: as above; assay type: cell-based, Human; conditions: 48 hours exposure; for IC50: Homo sapiens, read-out: Inhibition of Cancer Cell Growth as Measured by Cell Number (IC50) A2780S
Method: as §1

[9] = molecular target: T1, His-tagged cytoplasmic domain of EGFR (Homo sapiens, UniProt P00533); experiment: Inhibition of Epidermal Growth Factor Receptor Kinase (EGF-R) using recombinant enzyme, RR-SRC peptide phosphorylation; assay type: biochemical
T1 construct: containing the EGFR cDNA encoding amino acids 645 - 1186 preceded by Met-Ala-(His)6; Met-Ala-(His)6 (N); made in house; host or cells: Sf9 insect cells, recombinant baculovirus vHcEGFR52
Method: The enzyme used in this assay is the His-tagged cytoplasmic domain of EGFR. […] Sf9 cells in 100 mm plates were infected at an moi of 10 pfu/cell and cells were harvested 48 h post infection. A cytoplasmic extract was prepared using 1% Triton X-100 and applied to Ni-NTA column. After washing the column with 20 mM imidazole, HcEGFR was eluted with 250 mM imidazole (in 50 mM Na2HPO4, pH 8.0, 300 mM NaCl). Fractions collected were dialyzed against 10 mM HEPES, pH 7.0, 50 mM NaCl, 10% glycerol, 1ug/mL antipain and leupeptin and 0. 1 mM Pefabloc SC. The protein was frozen in dry ice/methanol and stored -70°C.
For the enzyme reaction, 10 uL of each inhibitor (at various concentrations) were added to each well of a 96-well plate. To this was added 3 uL of enzyme (1: 10 dilution in 10mM HEPES, pH 7.4 for final conc. of 1:120). This was allowed to sit for 10 min on ice and was followed by the addition of 5 ul peptide (80 uM final conc.), 10ul of 4X Buffer (Table A), 0.25 uL ^33P-ATP and 12 uL H2O. The reaction was allowed to run for 90 min at room temperature and was followed by spotting the entire volume on to precut P81 filter papers. The filter discs were washed 2X with 0.5% phosphoric acid and radioactivity was measured using a liquid scintillation counter.

[10] = recombinant enzyme, average of the number of tests, read-out: IC50

T1 sequence (P00533 669-1210): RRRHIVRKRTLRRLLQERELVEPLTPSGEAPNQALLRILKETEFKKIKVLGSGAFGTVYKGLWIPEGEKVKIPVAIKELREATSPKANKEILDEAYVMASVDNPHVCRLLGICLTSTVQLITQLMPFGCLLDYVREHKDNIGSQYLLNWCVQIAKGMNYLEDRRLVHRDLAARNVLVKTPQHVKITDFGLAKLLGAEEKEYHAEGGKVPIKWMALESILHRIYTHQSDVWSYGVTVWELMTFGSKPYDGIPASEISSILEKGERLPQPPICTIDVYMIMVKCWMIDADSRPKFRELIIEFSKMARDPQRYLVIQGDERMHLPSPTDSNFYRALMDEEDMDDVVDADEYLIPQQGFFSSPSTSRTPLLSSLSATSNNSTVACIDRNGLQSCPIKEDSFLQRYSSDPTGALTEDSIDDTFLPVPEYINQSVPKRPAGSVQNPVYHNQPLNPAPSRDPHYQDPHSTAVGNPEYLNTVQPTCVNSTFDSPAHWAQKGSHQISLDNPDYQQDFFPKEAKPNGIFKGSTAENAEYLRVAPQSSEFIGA

Compound	Inhibition of Cancer Cell Growth as Measured by Cell Number (IC50) SKBR3 ([1]; 48 hours exposure) [µg/mL]	Inhibition of Cancer Cell Growth as Measured by Cell Number (IC50) A431 ([2]; 48 hours exposure) [µg/mL]	Inhibition of Cancer Cell Growth as Measured by Cell Number (IC50) MCF7 [3] [µg/mL]	Inhibition of Cancer Cell Growth as Measured by Cell Number (IC50) A2780DDP [4] [µg/mL]	Inhibition of Cancer Cell Growth as Measured by Cell Number (IC50) SW620 ([5]; 48 hours exposure) [µg/mL]	Inhibition of Cancer Cell Growth as Measured by Cell Number (IC50) LOX [6] [µg/mL]	Inhibition of Cancer Cell Growth as Measured by Cell Number (IC50) MB435 [7] [µg/mL]	Inhibition of Cancer Cell Growth as Measured by Cell Number (IC50) A2780S [8] [µg/mL]	IC50 [1] [µg/mL]	IC50 [2] [µg/mL]	IC50 [3] [µg/mL]	IC50 [4] [µg/mL]	IC50 [5] [µg/mL]	IC50 [6] [µg/mL]	IC50 [7] [µg/mL]	IC50 [8] [µg/mL]	pIC50 [9, 10]	pIC50 [9]
4-Diethylamino-but-2-enoic acid [4-(3-bromo-phenylamino)-quinazolin-6-yl]-amide [Example 67]	<0.01	0.01	59	43	52	46	45	22										
O=C(C#CCCl)Nc1ccc2ncnc(Nc3cccc(Br)c3)c2c1 [Example 12, 4-Chloro-but-2-ynoic acid [4-(3-bromo-phenylamino)-quinazolin-6-y]-amide]									< 0.01	0.03 (≈ 0.0722 µM)	0.49 (≈ 1.18 µM)	0.07 (≈ 0.168 µM)	0.06 (≈ 0.144 µM)	0.04 (≈ 0.0962 µM)	0.39 (≈ 0.938 µM)	0.03 (≈ 0.0722 µM)	8.30	
CC(C)(C)[Si](C)(C)OCC#CC(=O)Nc1ccc2ncnc(Nc3cccc(Br)c3)c2c1 [Example 15, 4-(tert-Butyl-dimethyl-silanyloxy)-but-2-ynoic acid [4-(3-bromo-phenylamino)quinazolin-6-yl]-amide]									0.38 (≈ 0.743 µM)	0.04 (≈ 0.0782 µM)	0.45 (≈ 0.88 µM)	0.05 (≈ 0.0978 µM)	0.02 (≈ 0.0391 µM)	0.03 (≈ 0.0587 µM)	0.42 (≈ 0.821 µM)	0.02 (≈ 0.0391 µM)	8.22	
O=C(C#CCN1CCOCC1)Nc1ccc2ncnc(Nc3cccc(Br)c3)c2c1 [Example 19, 4-Morpholin-4-yl-but-2-ynoic acid [4-(3-bromo-phenylamino)-quinazolin-6-yl]-amide]									0.003 (≈ 0.00643 µM)	0.02 (≈ 0.0429 µM)	6.36 (≈ 13.6 µM)	3.32 (≈ 7.12 µM)	1.1 (≈ 2.36 µM)	3.55 (≈ 7.61 µM)	5.95 (≈ 12.8 µM)	4.37 (≈ 9.37 µM)		7.30
COCC#CC(=O)Nc1ccc2ncnc(Nc3cccc(Br)c3)c2c1 [Example 23, 4-Methoxy-but-2-ynoic acid [4-(3-bromo-phenylamino)-quinazolin-6-yl]-amide]									0.06 (≈ 0.146 µM)	0.05 (≈ 0.122 µM)	0.5 (≈ 1.22 µM)	0.06 (≈ 0.146 µM)	0.06 (≈ 0.146 µM)	0.02 (≈ 0.0486 µM)	0.8 (≈ 1.95 µM)	0.12 (≈ 0.292 µM)	9.51	
CCN1CCN(CC#CC(=O)Nc2ccc3ncnc(Nc4cccc(Br)c4)c3c2)CC1 [Example 28, 4-(4-Ethyl-piperazin-1-yl)-but-2-ynoic acid [4-(3-bromophenylamino)-quinazolin-6-yl]-amide]									0.1 (≈ 0.203 µM)	0.6 (≈ 1.22 µM)	3.09 (≈ 6.26 µM)	0.56 (≈ 1.13 µM)	2.38 (≈ 4.82 µM)	1.94 (≈ 3.93 µM)	1.61 (≈ 3.26 µM)	0.84 (≈ 1.7 µM)		8.26
COCCN(CC#CC(=O)Nc1ccc2ncnc(Nc3cccc(Br)c3)c2c1)CCOC [Example 31, 4-[Bis-(2-methoxy-methyl]-amino]-but-2-ynoic acid [4-(3-bromophenylamino)-quinazolin-6-yl]-amide]									< 0.01	0.01 (≈ 0.0195 µM)		0.6 (≈ 1.17 µM)	0.4 (≈ 0.781 µM)	0.5 (≈ 0.976 µM)	0.7 (≈ 1.37 µM)	0.2 (≈ 0.39 µM)	8.70	
CN1CCN(CC#CC(=O)Nc2ccc3ncnc(Nc4cccc(Br)c4)c3c2)CC1 [Example 34, 4-(4-Methyl-piperazin-1-yl]-but-2-ynoic acid [4-(3-bromophenylamino)-quinazolin-6-yl]-amide]																	7.46	
COCCN(C)CC#CC(=O)Nc1ccc2ncnc(Nc3cccc(Br)c3)c2c1 [Example 37]																	8.35	
